pKd: −log10 of the molar value.
Biological target: MAP4K4 kinase (Homo sapiens, UniProt O95819)
Assay: MAP4K4 fragment screen, KD of fragment hits
Assay type: binding
Details: for pKd: fragment screening hits, read-out: MAP4K4 inact KD; for LE difference to the cluster seed: difference in LE to cluster seed (C02M01 or C12M01); for Ligand Efficiency: LE computed as 1.4*pKd/nHeavyAtoms
Description: Utilizing additional fragment collections, we expanded our previous ~2,500 compound screen of the MAP4K4 kinase by performing an additional screen of 8,000 compounds [28]. […] AAP similarity and DISE clustering were used to cluster the combined hit set fragments. The fragment hits were sorted according to their LE, followed by the cluster seed selection. The AAP similarity threshold in this step was 0.3. The remaining hits were assigned to the most similar cluster seed.

MAP4K4 kinase, sequence (O95819 whole entry, the tested form may be a part): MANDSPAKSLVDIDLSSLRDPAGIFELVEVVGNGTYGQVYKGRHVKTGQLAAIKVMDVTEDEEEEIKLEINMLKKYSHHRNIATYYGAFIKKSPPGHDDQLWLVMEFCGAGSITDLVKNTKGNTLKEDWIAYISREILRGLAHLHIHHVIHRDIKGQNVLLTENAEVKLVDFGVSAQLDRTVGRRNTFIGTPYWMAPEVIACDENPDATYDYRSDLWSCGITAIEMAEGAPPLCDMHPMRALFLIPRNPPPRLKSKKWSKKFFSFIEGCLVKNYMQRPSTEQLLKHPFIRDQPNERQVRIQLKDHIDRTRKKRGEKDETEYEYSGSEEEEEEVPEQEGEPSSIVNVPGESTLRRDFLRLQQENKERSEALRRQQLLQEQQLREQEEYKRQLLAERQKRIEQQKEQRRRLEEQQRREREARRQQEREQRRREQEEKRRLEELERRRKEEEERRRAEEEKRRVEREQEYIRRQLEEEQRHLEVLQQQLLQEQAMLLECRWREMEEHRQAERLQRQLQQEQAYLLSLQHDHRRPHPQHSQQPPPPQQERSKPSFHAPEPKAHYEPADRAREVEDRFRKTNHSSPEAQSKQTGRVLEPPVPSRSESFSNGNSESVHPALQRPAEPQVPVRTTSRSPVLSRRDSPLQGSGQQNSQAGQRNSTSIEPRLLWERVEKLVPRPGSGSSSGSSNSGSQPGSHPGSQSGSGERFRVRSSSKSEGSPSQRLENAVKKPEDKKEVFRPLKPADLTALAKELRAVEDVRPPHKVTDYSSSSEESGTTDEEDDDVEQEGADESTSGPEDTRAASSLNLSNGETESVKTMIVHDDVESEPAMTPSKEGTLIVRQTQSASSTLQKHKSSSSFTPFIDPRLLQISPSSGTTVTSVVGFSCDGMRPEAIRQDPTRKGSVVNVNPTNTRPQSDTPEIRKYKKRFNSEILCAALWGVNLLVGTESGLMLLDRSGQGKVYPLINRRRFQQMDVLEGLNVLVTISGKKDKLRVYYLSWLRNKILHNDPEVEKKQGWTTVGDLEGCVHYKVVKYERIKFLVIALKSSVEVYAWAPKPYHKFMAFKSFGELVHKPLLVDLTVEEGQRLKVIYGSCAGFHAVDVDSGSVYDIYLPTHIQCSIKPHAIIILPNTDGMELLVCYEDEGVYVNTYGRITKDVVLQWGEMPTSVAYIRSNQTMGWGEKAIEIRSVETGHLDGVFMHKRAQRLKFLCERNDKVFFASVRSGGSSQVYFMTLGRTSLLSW

SMILES	pKd	LE difference to the cluster seed	Ligand Efficiency
Nc1ncncc1-c1ccccc1 [C02M02]	4.55	0.13	
Nc1ncncc1-c1ccc(Cl)cc1 [C02M03]	4.45	0.17	
Nc1ncnc(Cl)c1-c1ccccc1 [C02M04]	3.44		
CCc1nc(N)nc(N)c1-c1ccc(Cl)cc1 [C02M06]	3.03		
Nc1n[nH]c2cc(-c3ccccc3)ccc12 [C12M02]	5.68		0.49
Nc1c(-c2ccccc2)nn2ccccc12 [C12M05]	3.56		0.31

Second part, the compound after the results:

pKd	LE difference to the cluster seed	Ligand Efficiency	SMILES
6.26			Nc1ncncc1-c1ccc(O)cc1 [C02M01]
3.30			OCc1ccc(-c2cncnc2)cc1 [C02M05]
5.47		0.5	c1ccc(-c2n[nH]c3ccccc23)cc1 [C12M01]
4.77	0.09	0.41	Nc1ccc2[nH]nc(-c3ccccc3)c2c1 [C12M03]
